Assay results published in patent US20260317324A1, “BIFUNCTIONAL COMPOUNDS FOR DEGRADING BRAF VIA UBIQUITIN PROTEOSOME PATHWAY” (Nurix Therapeutics, Inc., priority 2023, published 2026).

How the values were obtained:
Format in all cases: cell-based
BRAF G466V = biological target: T1, BRAF G466V (Homo sapiens, UniProt P15056, G466V); test: BRAF HiBiT degradation assay, C-terminal HiBiT-tagged BRAF G466V overexpressed in HCT-116 BRAF−/− cells (clone 8), Nano-Glo HiBiT Lytic assay
T1 construct: Horizon Discovery (HCT-116 BRAF−/− cells); host or cells: HCT-116 BRAF−/− cells, clone 8, lentiviral transduction
Outline: (§1)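 Cells 3,000/well, 24 h at 37 °C; cpds 1 μM–0.01 nM, 11-pt half-log, duplicate, 0.2% DMSO. Readout: HiBiT lytic luminescence, 10 min at RT. Normalized to DMSO-treated tagged cells, with DMSO-treated wild-type HCT-116 as background. DC50 = fitted concentration at Y=50; Obs. Dmax = % degraded at maximal effect.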

BRAF V600E = biological target: T2, BRAF V600E (Homo sapiens, UniProt P15056, V600E); test: BRAF HiBiT degradation assay, C-terminal HiBiT-tagged BRAF V600E A375 cells (clone 1F10), Nano-Glo HiBiT Lytic assay; settings: for Dmax: A-375
T2 construct: endogenous C-terminal HiBiT fusion tag on BRAF V600E allele; endogenous in cells; host or cells: A375 clone 1F10 (CRISPR-Cas9 knock-in of the HiBiT tag; parental A375 from ATCC)
Outline: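 Luminescence read-out: Nano-Glo HiBiT lytic reagent with LgBiT, 10 min at room temperature. Signal normalised to DMSO-treated tagged cells, with wildtype A375 as background. Cells are endogenously tagged BRAF V600E A375 clone 1F10. Compounds were tested from 1 μM to 0.01 nM; Dmax is observed % degraded at maximal effect.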

BRAF D594G = biological target: T3, BRAF D594G (Homo sapiens, UniProt P15056, D594G); test: BRAF HiBiT degradation assay, C-terminal HiBiT-tagged BRAF D594G overexpressed in HCT-116 BRAF−/− cells (clone 63), Nano-Glo HiBiT Lytic assay
T3 construct: Horizon Discovery (HCT-116 BRAF−/− cells); host or cells: HCT-116 BRAF−/− cells, clone 63, lentiviral transduction
Outline: as §1

BRAF G469A = biological target: T4, BRAF G469A (Homo sapiens, UniProt P15056, G469A); test: BRAF HiBiT degradation assay, C-terminal HiBiT-tagged BRAF G469A overexpressed in HCT-116 BRAF−/− cells (clone 34), Nano-Glo HiBiT Lytic assay
T4 construct: Horizon Discovery (HCT-116 BRAF−/− cells); host or cells: HCT-116 BRAF−/− cells, clone 34, lentiviral transduction
Outline: as §1

[1] = BRAF G466V, DC50 at 50%: fitted conc. at Y=50
[2] = HCT-116, BRAF G466V, percentage protein degraded at maximal compound effect relative to DMSO
[3] = A375 (BRAF V600E), DC50 at 50%: fitted conc. at Y=50
[4] = A375 (BRAF V600E), percentage protein degraded at maximal compound effect relative to DMSO
[5] = BRAF D594G, DC50 at 50%: fitted conc. at Y=50
[6] = HCT-116, BRAF D594G, percentage protein degraded at maximal compound effect relative to DMSO
[7] = Class 2, BRAF G469A, DC50 at 50%: fitted conc. at Y=50
[8] = HCT-116, Class 2, BRAF G469A, percentage protein degraded at maximal compound effect relative to DMSO
[9] = BRAF G466V (Class 3), HCT-116 BRAF−/− cells, DC50 at 50% degradation
[10] = BRAF G466V (Class 3), HCT-116 BRAF−/− cells, observed Dmax relative to DMSO control
[11] = A375 (BRAF V600E, Class 1), DC50 at 50% degradation
[12] = A375 (BRAF V600E, Class 1), observed Dmax, % protein degraded relative to DMSO control
[13] = BRAF D594G (Class 3), HCT-116 BRAF−/− cells, DC50 at 50% degradation
[14] = BRAF D594G (Class 3), HCT-116 BRAF−/− cells, observed Dmax relative to DMSO control
[15] = BRAF G469A (Class 2), HCT-116 BRAF−/− cells, DC50 at 50% degradation
[16] = BRAF G469A (Class 2), HCT-116 BRAF−/− cells, observed Dmax relative to DMSO control

T1 sequence (P15056 whole entry G466V): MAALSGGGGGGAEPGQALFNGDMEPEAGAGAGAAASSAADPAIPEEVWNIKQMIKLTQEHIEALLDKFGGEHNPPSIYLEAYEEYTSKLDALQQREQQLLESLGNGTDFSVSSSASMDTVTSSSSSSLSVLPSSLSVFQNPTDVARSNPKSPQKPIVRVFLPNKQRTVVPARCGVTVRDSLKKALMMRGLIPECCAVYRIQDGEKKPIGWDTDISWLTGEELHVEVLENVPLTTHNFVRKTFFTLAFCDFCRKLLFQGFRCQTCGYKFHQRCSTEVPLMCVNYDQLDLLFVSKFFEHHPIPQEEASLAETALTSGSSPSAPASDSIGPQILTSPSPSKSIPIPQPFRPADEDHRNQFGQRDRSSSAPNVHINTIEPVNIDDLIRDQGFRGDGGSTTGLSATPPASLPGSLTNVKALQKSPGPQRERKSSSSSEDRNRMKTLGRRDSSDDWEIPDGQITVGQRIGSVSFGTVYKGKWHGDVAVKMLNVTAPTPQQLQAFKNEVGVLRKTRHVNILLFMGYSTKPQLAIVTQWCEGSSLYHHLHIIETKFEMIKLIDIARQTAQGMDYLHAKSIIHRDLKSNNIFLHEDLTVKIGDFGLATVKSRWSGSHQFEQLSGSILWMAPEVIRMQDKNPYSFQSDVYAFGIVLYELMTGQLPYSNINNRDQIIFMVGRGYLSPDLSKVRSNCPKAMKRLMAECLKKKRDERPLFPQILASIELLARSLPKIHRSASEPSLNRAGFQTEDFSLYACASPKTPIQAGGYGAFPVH
T4 sequence (P15056 whole entry G469A): as the sequence (P15056 whole entry G466V) above, with V466G, G469A counted along it
T3 sequence (P15056 whole entry D594G): as the sequence (P15056 whole entry G466V) above, with V466G, D594G counted along it
T2 sequence (P15056 whole entry V600E, the tested form may be a part): as the sequence (P15056 whole entry G466V) above, with V466G, V600E counted along it

| DC50 (BRAF G466V; [1]) [nM] | Dmax (BRAF G466V; [2]) [%] | DC50 (BRAF V600E; [3]) [nM] | Dmax (BRAF V600E; [4]) [%] | DC50 (BRAF D594G; [5]) [nM] | Dmax (BRAF D594G; [6]) [%] | DC50 (BRAF G469A; [7]) [nM] | Dmax (BRAF G469A; [8]) [%] | DC50 (BRAF G466V; [9]) [nM] | Dmax (BRAF G466V; [10]) [%] | DC50 (BRAF V600E; [11]) [nM] | Dmax (BRAF V600E; [12]) [%] | DC50 (BRAF D594G; [13]) [nM] | Dmax (BRAF D594G; [14]) [%] | DC50 (BRAF G469A; [15]) [nM] | Dmax (BRAF G469A; [16]) [%] | Structure (SMILES) |
| --- | --- | --- | --- | --- | --- | --- | --- | --- | --- | --- | --- | --- | --- | --- | --- | --- |
| 10 to 50 | > 70 | 10 to 50 | > 70 | < 10 | 30 to 70 | 50 to 500 | 30 to 70 |  |  |  |  |  |  |  |  | CCCS(=O)(=O)Nc1cccc(-c2cn(-c3ccc(N4CCN(CC5CCN(c6ccc([C@H]7CCC(=O)NC7=O)cc6)CC5)CC4)cc3)nc2-c2ccncc2)c1F [Compound 16, N-{3-[1-(4-{4-[(1-{4-[(3R)-2,6-dioxopiperidin-3-yl]phenyl}piperidin-4-yl)methyl]piperazin-1-yl}phenyl)-3-(pyridin-4-yl)-1H-pyrazol-4-yl]-2-fluorophenyl}propane-1-sulfonamide] |
| 10 to 50 | 30 to 70 | < 10 | > 70 | < 10 | 30 to 70 | > 500 | 30 to 70 |  |  |  |  |  |  |  |  | CCCS(=O)(=O)Nc1cccc(-c2nc(C3CCN(C(=O)C4CCN(C(=O)C5CCN(c6ccc(C7CCC(=O)NC7=O)cn6)CC5)CC4)CC3)sc2-c2ccnc(NC(C)C)n2)c1F (racemic) [Compound 206, Rac-N-[3-(2-{1-[1-(1-{5-[(3R)-2,6-dioxopiperidin-3-yl]pyridin-2-yl}piperidine-4-carbonyl)piperidine-4-carbonyl]piperidin-4-yl}-5-{2-[(propan-2-yl)amino]pyrimidin-4-yl}-1,3-thiazol-4-yl)-2-fluorophenyl]propane-1-sulfonamide] |
|  |  |  |  |  |  |  |  | < 10 | > 70 | < 10 | > 70 | < 10 | 30 to 70 | < 10 | 30 to 70 | O=C1CCN(c2ccc(N3CCC(CN4CCN(c5ccc(-n6cc(-c7cc(Cl)cc(NS(=O)(=O)N8CC[C@@H](F)C8)c7F)c(-c7ccncc7)n6)cc5)CC4)CC3)nc2)C(=O)N1 [Compound 263, (R)—N-(5-chloro-3-(1-(4-(4-((1-(5-(2,4-dioxotetrahydropyrimidin-1(2H)-yl)pyridin-2-yl)piperidin-4-yl)methyl)piperazin-1-yl)phenyl)-3-(pyridin-4-yl)-1H-pyrazol-4-yl)-2-fluorophenyl)-3-fluoropyrrolidine-1-sulfonamide] |
| > 500 | < 30 | < 10 | > 70 | > 500 | 30 to 70 | > 500 | < 30 |  |  |  |  |  |  |  |  | CCN(C)S(=O)(=O)Nc1cccc(-c2nc(C(C)(C)C)sc2-c2ccnc(Nc3ccc(N4CCN(C(=O)C5(C)CCN(c6ccc(C7CCC(=O)NC7=O)cn6)CC5)CC4)cn3)n2)c1F (racemic) [Compound 42, Rac-(3S)-3-[6-(4-{4-[6-({4-[2-tert-butyl-4-(3-{[ethyl(methyl)sulfamoyl]amino}-2-fluorophenyl)-1,3-thiazol-5-yl]pyrimidin-2-yl}amino)pyridin-3-yl]piperazine-1-carbonyl}-4-methylpiperidin-1-yl)pyridin-3-yl]piperidine-2,6-dione] |
| < 10 | 30 to 70 | < 10 | > 70 | < 10 | 30 to 70 | 50 to 500 | 30 to 70 |  |  |  |  |  |  |  |  | CCCS(=O)(=O)Nc1cccc(-c2nc(C3CCN(C(=O)C4CCN(C(=O)C5CCN(c6ccc(C7CCC(=O)NC7=O)cn6)CC5)CC4)CC3)sc2-c2ccncc2)c1F (racemic) [Compound 210, Rac-N-[3-(2-{1-[1-(1-{5-[(3R)-2,6-dioxopiperidin-3-yl]pyridin-2-yl}piperidine-4-carbonyl)piperidine-4-carbonyl]piperidin-4-yl}-5-(pyridin-4-yl)-1,3-thiazol-4-yl)-2-fluorophenyl]propane-1-sulfonamide] |
|  |  |  |  |  |  |  |  | < 10 | > 70 | < 10 | > 70 | < 10 | 30 to 70 | 10 to 50 | 30 to 70 | CCN(C)S(=O)(=O)Nc1cc(Cl)cc(-c2cn(-c3ccc(N4CCN(CC5CCN(c6ccc([C@H]7CCC(=O)NC7=O)cc6)CC5)CC4)cc3)nc2-c2ccncc2)c1F [Compound 306, (3R)-3-(4-{4-[(4-{4-[4-(5-chloro-3-{[ethyl(methyl)sulfamoyl]amino}-2-fluorophenyl)-3-(pyridin-4-yl)-1H-pyrazol-1-yl]phenyl}piperazin-1-yl)methyl]piperidin-1-yl}phenyl)piperidine-2,6-dione] |
| > 500 | < 30 | 10 to 50 | 30 to 70 | > 500 | < 30 | > 500 | < 30 |  |  |  |  |  |  |  |  | CCCS(=O)(=O)Nc1cccc(-c2nc(C(C)(C)C)sc2-c2ccnc(Nc3ccc4c(c3)CCN(C(=O)CN3CCC(c5ccc(NC6CCC(=O)NC6=O)cc5)CC3)C4)n2)c1F (racemic) [Compound 123, Rac-N-[3-(2-tert-butyl-5-{2-[(2-{2-[4-(4-{[(3R)-2,6-dioxopiperidin-3-yl]amino}phenyl)piperidin-1-yl]acetyl}-1,2,3,4-tetrahydroisoquinolin-6-yl)amino]pyrimidin-4-yl}-1,3-thiazol-4-yl)-2-fluorophenyl]propane-1-sulfonamide] |
| > 500 | 30 to 70 | 10 to 50 | > 70 | > 500 | 30 to 70 | > 500 | < 30 |  |  |  |  |  |  |  |  | CCCS(=O)(=O)Nc1cccc(-c2nc(-c3ccc(N4CCN(CC5CCN(c6ccc([C@@H]7CCC(=O)NC7=O)cc6)CC5)CC4)cc3)sc2-c2ccnc(N)n2)c1F [Compound 186, N-{3-[5-(2-aminopyrimidin-4-yl)-2-(4-{4-[(1-{4-[(3S)-2,6-dioxopiperidin-3-yl]phenyl}piperidin-4-yl)methyl]piperazin-1-yl}phenyl)-1,3-thiazol-4-yl]-2-fluorophenyl}propane-1-sulfonamide] |
|  |  |  |  |  |  |  |  | < 10 | > 70 | < 10 | > 70 | 50 to 500 | 30 to 70 | 10 to 50 | 30 to 70 | CCCS(=O)(=O)Nc1cc(Cl)cc(-c2cn(-c3ccc(N4CCN(CC5CCN(c6ccc(N7CCC(=O)NC7=O)cc6)CC5)[C@H](C)C4)cc3)nc2-c2ccncc2)c1F [Compound 277, N-[5-chloro-3-(1-{4-[(3R)-4-({1-[4-(2,4-dioxo-1,3-diazinan-1-yl)phenyl]piperidin-4-yl}methyl)-3-methylpiperazin-1-yl]phenyl}-3-(pyridin-4-yl)-1H-pyrazol-4-yl)-2-fluorophenyl]propane-1-sulfonamide] |
|  |  |  |  |  |  |  |  | < 10 | > 70 | < 10 | > 70 | < 10 | > 70 | < 10 | > 70 | C[C@@H]1CN(c2ccc(-n3cc(-c4cc(Cl)cc(NS(=O)(=O)N5CCCC5)c4F)c(-c4ccncc4)n3)nc2)CCN1CC1CCN(c2ccc(C3CCC(=O)NC3=O)cn2)CC1 (mixture of isomers) [Compound 323, N-[5-chloro-3-(1-{5-[(3R)-4-[(1-{5-[(3RS)-2,6-dioxopiperidin-3-yl]pyridin-2-yl}piperidin-4-yl)methyl]-3-methylpiperazin-1-yl]pyridin-2-yl}-3-(pyridin-4-yl)-1H-pyrazol-4-yl)-2-fluorophenyl]pyrrolidine-1-sulfonamide] |
| > 500 | < 30 | < 10 | > 70 | > 500 | 30 to 70 | > 500 | < 30 |  |  |  |  |  |  |  |  | CCCS(=O)(=O)Nc1cccc(-c2nc(C(C)(C)C)sc2-c2ccnc(Nc3ccc(N4CCN(C(=O)CC5CCN(c6ccc(C7CCC(=O)NC7=O)cn6)CC5)CC4)c(F)c3)n2)c1F (racemic) [Compound 48, Rac-N-[3-(2-tert-butyl-5-{2-[(4-{4-[2-(1-{5-[(3R)-2,6-dioxopiperidin-3-yl]pyridin-2-yl}piperidin-4-yl)acetyl]piperazin-1-yl}-3-fluorophenyl)amino]pyrimidin-4-yl}-1,3-thiazol-4-yl)-2-fluorophenyl]propane-1-sulfonamide] |
